Data taken from patent US9029406B2 (Seattle Genetics, Inc, priority 2011, dated 2015).
Where a SMILES comes first, the peptide text is derived from it. [ ]: non-standard residue; d: D form. The star is where a group is joined. Dolaproine = CO[C@@H]([C@@H]1CCCN1)[C@@H](C)C(=O)O; Dil = CC[C@H](C)[C@H](NC)[C@@H](CC(=O)O)OC; X1 = C[C@@H](N*)[C@@H](O)c1ccccc1; NMeV = CN[C@H](C(=O)O)C(C)C

Assays:
[1] = tested on: human colon carcinoma cell line HT29 wt; test: Antiproliferative effect on the HT29 wt cell line (MTT assay); assay type: cell-based; details: incubation 48 h to 96 h
Description: B-1. Determination of the Antiproliferative Effect on the HT29 Wt Cell Line:
A defined cell count of the human colon carcinoma cell line HT29 wt (wild type) was sown in a 96-well microtiter plate in whole medium (10% FCS-RPMI) (2500 cells/well) and incubated overnight at 37° C./5% CO2. After 18 hours, the inoculation medium was replaced by fresh medium with 10% FCS. The treatment started with addition of the respective test substance. Of the substances to be investigated, dose-effect curves were determined in a concentration range of 10^−5 M to 10^−14 M (1:10 dilution series). Incubation times of 48 h to 96 h were selected. Proliferation was detected with the help of the MTT assay (ATCC, Manassas, Va., USA, catalog no. 30-1010K). After the end of the selected incubation time, the MTT reagent was incubated with the cells for 4 h before lysis of the cells was performed overnight by adding the detergent. The dye that was formed was detected at 570 nm. The proliferation with otherwise identically treated cells but not with the test substance was defined as the 100% value. The data obtained from this test represents triple determinations, and at least two independent experiments were performed.

[2] = Cell permeability, flux assay using Caco-2 cells; assay type: in vitro ADME; details: human; Caco-2 flux assay, basal to apical, 2 h incubation
Description: (§1) B-4. Determination of Cell Permeability:
(§2) The cell permeability of a substance can be analyzed by in vitro testing in a flux assay using Caco-2 cells [M. D. Troutman and D. R. Thakker, Pharm. Res. 20 (8), 1210-1224 (2003)]. To do so, the cells were cultured for 15-16 days on 24-hole filter plates. To determine the permeation, the respective test substance was applied to the cells either apically (A) or basally (B) in a HEPES buffer and incubated for 2 h. After 0 h and after 2 h, samples were taken from the cis- and trans-compartments. The samples were separated by HPLC (Agilent 1200, Böblingen, Germany) using reverse phase columns. The HPLC system was coupled via a turbo ion spray interface to an API 4000 triple quadrupole mass spectrometer (Applied Biosystems Applera, Darmstadt, Germany). The permeability was evaluated on the basis of a Papp value, which was calculated using the equation published by Schwab et al. [D. Schwab et al., J. Med. Chem. 46, 1717-1725 (2003)]. A substance was classified as being actively transported if the ratio of Papp (B−A) to Papp (A−B) was >2 or <0.5.
(§3) The permeability of B to A [Papp (B−A)] is of crucial importance for toxophores that are released intracellularly. The lower this permeability, the longer is the dwell time of the substance in the cell after intracellular release and thus also the time available for an interaction with the biochemical target (here: tubulin).

[3] = tested on: Caco-2 cells; test: Cell permeability, flux assay using Caco-2 cells; assay type: in vitro ADME; details: Caco-2 flux assay, basal to apical, 2 h incubation
Description: as §1, §2, §3

[4] = Homo sapiens, HT-29, HT29 wt cells

Compound | IC50 [1, 4] [nM] | Papp B→A at 2 h [2] [×10⁻⁶ cm/s] | IC50 ([1]; HT29 wt cells) [nM] | Papp (B-A) [3] [×10⁻⁶ cm/s]
CC[C@H](C)[C@@H]([C@@H](CC(=O)N1CCC[C@H]1[C@H](OC)[C@@H](C)C(=O)N[C@@H](Cc1ccccc1)CS(=O)(=O)Cc1ccccc1)OC)N(C)C(=O)[C@@H](NC(=O)[C@H](C(C)C)N(C)CCCC(=O)O)C(C)C [Example 4] | 1.1 | 1.9 |  | 
CC[C@H](C)[C@@H]([C@@H](CC(=O)N1CCC[C@H]1[C@H](OC)[C@@H](C)C(=O)N[C@H](/C=C/c1ccccc1)Cc1ccccc1)OC)N(C)C(=O)[C@@H](NC(=O)[C@H](C(C)C)N(C)CCCC(=O)O)C(C)C [Example 3, N-(3-Carboxypropyl)-N-methyl-L-valyl-N-[(3R,4S,5S)-1-{(2S)-2-[(1R,2R)-3-{[(2S,3E)-1,4-diphenylbut-3-en-2-yl]amino}-1-methoxy-2-methyl-3-oxopropyl]pyrrolidin-1-yl}-3-methoxy-5-methyl-1-oxoheptan-4-yl]-N-methyl-L-valinamide] | 0.3 | 17.9 |  | 
CC[C@H](C)[C@@H]([C@@H](CC(=O)N1CCC[C@H]1[C@H](OC)[C@@H](C)C(=O)NCCc1ccccc1)OC)N(C)C(=O)[C@@H](NC(=O)[C@H](C(C)C)N(C)CCCC(=O)O)C(C)C [Example 8, N-(3-Carboxypropyl)-N-methyl-L-valyl-N-[(3R,4S,5S)-3-methoxy-1-{(2S)-2-[(1R,2R)-1-methoxy-2-methyl-3-oxo-3-[(2-phenylethyl)amino]propyl}pyrrolidin-1-yl}-5-methyl-1-oxoheptan-4-yl]-N-methyl-L-valinamide] | 0.5 | 1 |  | 
CC[C@H](C)[C@@H]([C@@H](CC(=O)N1CCC[C@H]1[C@H](OC)[C@@H](C)C(=O)N[C@H](Cc1ccccc1)c1nnc(-c2ccccc2)o1)OC)N(C)C(=O)[C@@H](NC(=O)[C@H](C(C)C)N(C)CCCC(=O)O)C(C)C [Example 6, N-(3-Carboxypropyl)-N-methyl-L-valyl-N-[(3R,4S,5S)-3-methoxy-1-{(2S)-2-[(1R,2R)-1-methoxy-2-methyl-3-oxo-3-{[(1R)-2-phenyl-1-(5-phenyl-1,3,4-oxadiazol-2-yl)ethyl]amino}propyl]pyrrolidin-1-yl}-5-methyl-1-oxoheptan-4-yl]-N-methyl-L-valinamide] | 0.1 | 4.5 |  | 
CC[C@H](C)[C@@H]([C@@H](CC(=O)N1CCC[C@H]1[C@H](OC)[C@@H](C)C(=O)N[C@@H](Cc1ccccc1)c1nnc(-c2ccccc2)o1)OC)N(C)C(=O)[C@@H](NC(=O)[C@H](C(C)C)N(C)CCCC(=O)O)C(C)C [Example 5, N-(3-Carboxypropyl)-N-methyl-L-valyl-N-[(3R,4S,5S)-3-methoxy-1-{(2S)-2-[(1R,2R)-1-methoxy-2-methyl-3-oxo-3-{[(1S)-2-phenyl-1-(5-phenyl-1,3,4-oxadiazol-2-yl)ethyl]amino}propyl]pyrrolidin-1-yl}-5-methyl-1-oxoheptan-4-yl]-N-methyl-L-valinamide] | 0.1 | 2.9 |  | 
CC[C@H](C)[C@@H]([C@@H](CC(=O)N1CCC[C@H]1[C@H](OC)[C@@H](C)C(=O)N[C@H](/C=C\c1ccccc1)Cc1ccccc1)OC)N(C)C(=O)[C@@H](NC(=O)[C@H](C(C)C)N(C)CCCC(=O)O)C(C)C [Example 2, N-(3-Carboxypropyl)-N-methyl-L-valyl-N-[(3R,4S,5S)-1-{(2S)-2-[(1R,2R)-3-{[(2S,3Z)-1,4-diphenylbut-3-en-2-yl]amino}-1-methoxy-2-methyl-3-oxopropyl]pyrrolidin-1-yl}-3-methoxy-5-methyl-1-oxoheptan-4-yl]-N-methyl-L-valinamide] | 3.3 | 15.7 |  | 
CC[C@H](C)[C@@H]([C@@H](CC(=O)N1CCC[C@H]1[C@H](OC)[C@@H](C)C(=O)N[C@H](/C=C/c1ccc(C(=O)O)cc1)Cc1ccccc1)OC)N(C)C(=O)[C@@H](NC(=O)[C@H](C(C)C)N(C)CCCC(=O)O)C(C)C [Example 11] | 4.5 | 0.2 |  | 
CC[C@H](C)[C@@H]([C@@H](CC(=O)N1CCC[C@H]1[C@H](OC)[C@@H](C)C(=O)N[C@@H](Cc1ccccc1)C(=O)O)OC)N(C)C(=O)[C@@H](NC(=O)[C@@H](NC)C(C)C)C(C)C [MMAF, monomethylauristatin F, reference compound] (H-[NMeV]V[Dil][Dolaproine]F-OH) |  |  | 10 | 7.3
CC[C@H](C)[C@@H]([C@@H](CC(=O)N1CCC[C@H]1[C@H](OC)[C@@H](C)C(=O)N[C@H](C)[C@@H](O)c1ccccc1)OC)N(C)C(=O)[C@@H](NC(=O)[C@H](C(C)C)N(C)CCCC(=O)O)C(C)C [Example 9, N-(3-Carboxypropyl)-N-methyl-L-valyl-N-[(3R,4S,5S)-1-{(2S)-2-[(1R,2R)-3-{[(1S,2R)-1-hydroxy-1-phenylpropan-2-yl]amino}-1-methoxy-2-methyl-3-oxopropyl]pyrrolidin-1-yl}-3-methoxy-5-methyl-1-oxoheptan-4-yl]-N-methyl-L-valinamide] | 6 | 0.45 |  | 
CC[C@H](C)[C@@H]([C@@H](CC(=O)N1CCC[C@H]1[C@H](OC)[C@@H](C)C(=O)NCCc1c[nH]c2ccccc12)OC)N(C)C(=O)[C@@H](NC(=O)[C@H](C(C)C)N(C)CCCC(=O)O)C(C)C [Example 7, N-(3-Carboxypropyl)-N-methyl-L-valyl-N-[(3R,4S,5S)-1-{(2S)-2-[(1R,2R)-3-{[2-(1H-indol-3-yl)ethyl]amino}-1-methoxy-2-methyl-3-oxopropyl]pyrrolidin-1-yl}-3-methoxy-5-methyl-1-oxoheptan-4-yl]-N-methyl-L-valinamide] |  | 1.1 |  | 
CC[C@H](C)[C@@H]([C@@H](CC(=O)N1CCC[C@H]1[C@H](OC)[C@@H](C)C(=O)N[C@H](C)[C@@H](O)c1ccccc1)OC)N(C)C(=O)[C@@H](NC(=O)[C@@H](NC)C(C)C)C(C)C [MMAE, monomethylauristatin E, reference compound] (H-[NMeV]V[Dil][Dolaproine]-X1) |  |  |  | 8.9
CC[C@H](C)[C@@H]([C@@H](CC(=O)N1CCC[C@H]1[C@H](OC)[C@@H](C)C(=O)N[C@H](/C=C\Cc1ccccc1)Cc1ccccc1)OC)N(C)C(=O)[C@@H](NC(=O)[C@H](C(C)C)N(C)CCCC(=O)O)C(C)C [Example 1, N-(3-Carboxypropyl)-N-methyl-L-valyl-N-[(3R,4S,5S)-1-{(2S)-2-[(1R,2R)-3-{[(2S,3Z)-1,5-diphenylpent-3-en-2-yl]amino}-1-methoxy-2-methyl-3-oxopropyl]pyrrolidin-1-yl}-3-methoxy-5-methyl-1-oxoheptan-4-yl]-N-methyl-L-valinamide] | 15 |  |  | 
